Patent publication US8455475B2 (Gruenenthal GmbH, priority 2009, dated 2013)

How the values were obtained:
[1] = biological target: T1, human B1R (bradykinin receptor 1) (Homo sapiens, UniProt P46663); experiment: FLIPR Ca2+ assay (Fluo-4) on CHO K1 cells stably transfected with the human B1R gene (hB1R cells): % inhibition at 10 μM / IC50, agonist Lys-Des-Arg9-bradykinin; format: cell-based; settings: for inhibition at 10 µM: CHO-K1, human B1R
T1 construct: expressed in transfected cells; host or cells: CHO K1 cells
T1 sequence (P46663 1-353): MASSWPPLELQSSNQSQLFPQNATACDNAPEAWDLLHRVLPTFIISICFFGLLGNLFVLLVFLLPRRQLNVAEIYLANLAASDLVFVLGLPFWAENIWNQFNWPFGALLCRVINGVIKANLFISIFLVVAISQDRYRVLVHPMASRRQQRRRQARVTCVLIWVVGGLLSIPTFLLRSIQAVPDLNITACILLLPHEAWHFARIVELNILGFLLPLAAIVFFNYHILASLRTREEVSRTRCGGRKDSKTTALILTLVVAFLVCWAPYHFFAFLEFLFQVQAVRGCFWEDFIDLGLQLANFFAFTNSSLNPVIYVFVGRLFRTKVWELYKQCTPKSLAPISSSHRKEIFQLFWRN
Outline: (§1)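 Stably transfected CHO K1 cells loaded with Fluo-4 and read on FLIPR (λex 488, λem 540 nm; peak fluorescence). Test substance (10 μM) added first, then after 10–20 min the agonist at EC80; % inhibition versus maximum achievable inhibition. IC50 from several concentrations, n=2–3, N≥2.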

[2] = biological target: T2, rat B1R (bradykinin receptor 1) (Rattus norvegicus, UniProt P97583); experiment: FLIPR Ca2+ assay (Fluo-4) on CHO K1 cells stably transfected with the B1R gene of the rat (rB1R cells): % inhibition at 10 μM / IC50, agonist Des-Arg9-bradykinin; format: cell-based; settings: for inhibition at 10 µM: CHO-K1, rat B1R
T2 construct: expressed in transfected cells; host or cells: CHO K1 cells
T2 sequence (P97583 1-337): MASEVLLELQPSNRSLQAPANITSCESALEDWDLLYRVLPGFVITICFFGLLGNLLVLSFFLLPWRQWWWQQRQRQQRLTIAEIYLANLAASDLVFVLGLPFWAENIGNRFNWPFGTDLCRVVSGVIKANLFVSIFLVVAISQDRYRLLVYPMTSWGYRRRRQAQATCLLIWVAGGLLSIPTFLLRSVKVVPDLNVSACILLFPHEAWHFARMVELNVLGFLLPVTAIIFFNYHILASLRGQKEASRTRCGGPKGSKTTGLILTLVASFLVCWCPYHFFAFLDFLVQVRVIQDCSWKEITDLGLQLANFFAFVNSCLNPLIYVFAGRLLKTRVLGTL
Outline: as §1

Row | Compound | inhibition at 10 µM [1] | inhibition at 10 µM [2] | also measured
1 | CC1(C)CC(NC(=O)Nc2ccc(Cl)c(Cl)c2)c2cc(C(=O)N3CCC4(CC3)CCN(c3ccncc3)CC4)ccc21 (stereo not drawn) [Ind_CC-057] | – | – | % Inhibition (human B1R) at 10 μM [1]: 35%; % Inhibition (rat B1R) at 10 μM [2]: 80%
2 | CC1(C)CC(NC(=O)c2ccccc2C(F)(F)F)c2cc(C(=O)N3CCC4(CC3)CCN(c3ccncc3)CC4)ccc21 (stereo not drawn) [Ind_CC-058, N-[3,3-dimethyl-6-(9-pyridin-4-yl-3,9-diazaspiro[5.5]undecane-3-carbonyl)-1,2-dihydro-inden-1-yl]-2-(trifluoromethyl)-benzamide] | 100% | 101% | –
3 | CC1(C)CC(NC(=O)c2ccc(Cl)cc2Cl)c2cc(C(=O)N3CCC4(CC3)CCN(c3ccncc3)CC4)ccc21 (stereo not drawn) [Ind_CC-059, 2,4-dichloro-N-[3,3-dimethyl-6-(9-pyridin-4-yl-3,9-diazaspiro[5.5]undecane-3-carbonyl)-1,2-dihydro-inden-1-yl]-benzamide] | 100% | 102% | –
4 | CC1(C)CC(NC(=O)/C=C/c2ccccc2Cl)c2cc(C(=O)N3CCC4(CC3)CCN(c3ccncc3)CC4)ccc21 (stereo not drawn) [Ind_CC-060, (E)-3-(2-chlorophenyl)-N-[3,3-dimethyl-6-(9-pyridin-4-yl-3,9-diazaspiro[5.5]undecane-3-carbonyl)-1,2-dihydro-inden-1-yl]-acrylamide] | 93% | 94% | –
5 | CC1(C)CC(NC(=O)NCc2ccccc2Cl)c2cc(C(=O)N3CCC4(CC3)CCN(c3ccncc3)CC4)ccc21 (stereo not drawn) [Ind_CC-061, 1-[(2-chlorophenyl)-methyl]-3-[3,3-dimethyl-6-(9-pyridin-4-yl-3,9-diazaspiro[5.5]undecane-3-carbonyl)-1,2-dihydro-inden-1-yl]-urea] | 100% | 103% | –
6 | CC1(C)Cc2ccc(C(=O)N3CCC4(CC3)CCN(c3ccncc3)CC4)cc2C1NC(=O)c1ccccc1C(F)(F)F (stereo not drawn) [Ind_CC-064, N-[2,2-dimethyl-6-(9-pyridin-4-yl-3,9-diazaspiro[5.5]undecane-3-carbonyl)-1,3-dihydro-inden-1-yl]-2-(trifluoromethyl)-benzamide] | 95% | 101% | –
7 | CC1(C)Cc2ccc(C(=O)N3CCC4(CC3)CCN(c3ccncc3)CC4)cc2C1NC(=O)c1sccc1Cl (stereo not drawn) [Ind_CC-065, 3-chloro-N-[2,2-dimethyl-6-(9-pyridin-4-yl-3,9-diazaspiro[5.5]undecane-3-carbonyl)-1,3-dihydro-inden-1-yl]-thiophene-2-carboxylic acid amide] | 94% | 98% | –
8 | CC1(C)Cc2ccc(C(=O)N3CCC4(CC3)CCN(c3ccncc3)CC4)cc2C1NC(=O)c1ccc(Cl)s1 (stereo not drawn) [Ind_CC-066, 5-chloro-N-[2,2-dimethyl-6-(9-pyridin-4-yl-3,9-diazaspiro[5.5]undecane-3-carbonyl)-1,3-dihydro-inden-1-yl]-thiophene-2-carboxylic acid amide] | 82% | 98% | –
9 | CC1(C)Cc2ccc(C(=O)N3CCC4(CC3)CCN(c3ccncc3)CC4)cc2C1NC(=O)c1ccc(Cl)cc1Cl (stereo not drawn) [Ind_CC-067, 2,4-dichloro-N-[2,2-dimethyl-6-(9-pyridin-4-yl-3,9-diazaspiro[5.5]undecane-3-carbonyl)-1,3-dihydro-inden-1-yl]-benzamide] | 94% | 101% | –
10 | O=C(NC1CCc2ccc(C(=O)N3CCC4(CCN(c5ccncc5)CC4)C3)cc21)c1ccccc1C(F)(F)F (stereo not drawn) [Ind_CC-081, N-[6-(8-pyridin-4-yl-3,8-diazaspiro[4.5]decane-3-carbonyl)-2,3-dihydro-1H-inden-1-yl]-2-(trifluoromethyl)-benzamide] | 99% | 101% | –
11 | O=C(NC1CCc2ccc(C(=O)N3CCC4(CCN(c5ccncc5)CC4)C3)cc21)C(c1ccccc1)c1ccccc1Cl (stereo not drawn) [Ind_CC-082, 2-(2-chlorophenyl)-2-phenyl-N-[6-(8-pyridin-4-yl-3,8-diazaspiro[4.5]decane-3-carbonyl)-2,3-dihydro-1H-inden-1-yl]-acetamide] | 100% | 101% | –
12 | O=C(/C=C/c1ccccc1Cl)NC1CCc2ccc(C(=O)N3CCC4(CCN(c5ccncc5)CC4)C3)cc21 (stereo not drawn) [Ind_CC-083, (E)-3-(2-chlorophenyl)-N-[6-(8-pyridin-4-yl-2,8-diazaspiro[4.5]decane-2-carbonyl)-2,3-dihydro-1H-inden-1-yl]-acrylamide] | 90% | 85% | –
13 | O=C(NC1CCc2ccc(C(=O)N3CCC4(CCN(c5ccncc5)CC4)C3)cc21)c1ccccn1 (stereo not drawn) [Ind_CC-084, N-[6-(8-pyridin-4-yl-3,8-diazaspiro[4.5]decane-3-carbonyl)-2,3-dihydro-1H-inden-1-yl]-pyridine-2-carboxylic acid amide] | 99% | 100% | –
14 | O=C(Nc1ccc(Cl)c(Cl)c1)NC1CCc2ccc(C(=O)N3CCC4(CCN(c5ccncc5)CC4)C3)cc21 (stereo not drawn) [Ind_CC-085] | – | – | % Inhibition (human B1R) at 10 μM [1]: 91%; % Inhibition (rat B1R) at 10 μM [2]: 77%
15 | O=C(NCc1ccccc1Cl)NC1CCc2ccc(C(=O)N3CCC4(CCN(c5ccncc5)CC4)C3)cc21 (stereo not drawn) [Ind_CC-086, 1-[(2-chlorophenyl)-methyl]-3-[6-(8-pyridin-4-yl-2,8-diazaspiro[4.5]decane-2-carbonyl)-2,3-dihydro-1H-inden-1-yl]-urea] | 100% | 99% | –
16 | COc1cc(C)c(C(=O)NC2CCc3ccc(C(=O)N4CCC5(CC4)CCN(c4cccnc4)CC5)cc32)c(C)c1 (stereo not drawn) [Ind_CC-090, 4-methoxy-2,6-dimethyl-N-[6-(9-pyridin-3-yl-3,9-diazaspiro[5.5]undecane-3-carbonyl)-2,3-dihydro-1H-inden-1-yl]-benzamide] | 42% | 100% | –
17 | COc1cc(C)c(C(=O)NC2CCc3ccc(C(=O)N4CCC5(CC4)CCN(c4ccc(F)cc4)CC5)cc32)c(C)c1 (stereo not drawn) [Ind_CC-091, N-[6-[9-(4-fluorophenyl)-3,9-diazaspiro[5.5]undecane-3-carbonyl]-2,3-dihydro-1H-inden-1-yl]-4-methoxy-2,6-dimethyl-benzamide] | 24% | 50% | –
18 | COc1cc(C)c(C(=O)NC2CCc3ccc(C(=O)N4CCC5(CCN(Cc6ccncc6)CC5)CC4)cc32)c(C)c1 (stereo not drawn) [Ind_CC-092, 4-methoxy-2,6-dimethyl-N-[6-[9-(pyridin-4-yl-methyl)-3,9-diazaspiro[5.5]undecane-3-carbonyl]-2,3-dihydro-1H-inden-1-yl]-benzamide] | 78% | 101% | –
19 | COc1cc(C)c(C(=O)NC2CCc3ccc(C(=O)N4CCC5(CC4)CCC(c4ccc(F)cc4)(N(C)C)CC5)cc32)c(C)c1 (stereo not drawn) [Ind_CC-093, N-[6-[9-dimethylamino-9-(4-fluorophenyl)-3-azaspiro[5.5]undecane-3-carbonyl]-2,3-dihydro-1H-inden-1-yl]-4-methoxy-2,6-dimethyl-benzamide] | 34% | 74% | –
20 | COc1cc(C)c(C(=O)NC2CCc3ccc(C(=O)N4CCC5(CC4)CCN(c4ccncc4)C5)cc32)c(C)c1 (stereo not drawn) [Ind_CC-094, 4-methoxy-2,6-dimethyl-N-[6-(2-pyridin-4-yl-2,8-diazaspiro[4.5]decane-8-carbonyl)-2,3-dihydro-1H-inden-1-yl]-benzamide] | 42% | 65% | –
21 | O=C(NC1CCc2ccc(C(=O)N3CCC4(CC3)CCN(c3ccncc3)CC4)cc21)c1ccccc1Cl (stereo not drawn) [Ind_CC-095, 2-chloro-N-[6-(9-pyridin-4-yl-3,9-diazaspiro[5.5]undecane-3-carbonyl)-2,3-dihydro-1H-inden-1-yl]-benzamide] | – | – | % Inhibition (human B1R) at 10 μM ([1]; 10 µM): 99%; % Inhibition (rat B1R) at 10 μM ([2]; 10 µM): 99%
22 | O=C(NC1CCc2ccc(C(=O)N3CCC4(CC3)CCN(c3cccnc3)CC4)cc21)c1ccccc1Cl (stereo not drawn) [Ind_CC-096, 2-chloro-N-[6-(9-pyridin-3-yl-3,9-diazaspiro[5.5]undecane-3-carbonyl)-2,3-dihydro-1H-inden-1-yl]-benzamide] | 91% | 101% | –
23 | O=C(NC1CCc2ccc(C(=O)N3CCC4(CC3)CCN(c3ccc(F)cc3)CC4)cc21)c1ccccc1Cl (stereo not drawn) [Ind_CC-097, 2-chloro-N-[6-[9-(4-fluorophenyl)-3,9-diazaspiro[5.5]undecane-3-carbonyl]-2,3-dihydro-1H-inden-1-yl]-benzamide] | 33% | 90% | –
24 | O=C(NC1CCc2ccc(C(=O)N3CCC4(CCN(Cc5ccncc5)CC4)CC3)cc21)c1ccccc1Cl (stereo not drawn) [Ind_CC-098, 2-chloro-N-[6-[9-(pyridin-4-yl-methyl)-3,9-diazaspiro[5.5]undecane-3-carbonyl]-2,3-dihydro-1H-inden-1-yl]-benzamide] | 34% | 98% | –
